Data on 8 compounds can be found in patent US11312719B2, “9-substituted amino triazolo quinazoline derivatives as adenosine receptor antagonists, pharmaceutical compositions and their use” (Merck Sharp & Dohme Corp., priority 2018, dated 2022).

The target in test [1] is human A2b adenosine receptor (Homo sapiens (Human), UniProt P29275). Description: A2b radioligand filtration binding assay. Conditions: for IC50: membranes from HEK293 cells expressing human A2b receptor. The method, boiled down: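 Displacement of a tritiated A2b antagonist (working solution 14 nM) from human A2b receptor membranes of recombinant HEK293 cells, in Mg/Ca-free PBS pH 7.4, 60 min at room temperature after 15 to 30 min compound preincubation. Filtered, counted; normalized to total and 20 μM NECA non-specific binding; IC50 from logistic fit.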
Sequence of human A2b adenosine receptor (P29275 whole entry): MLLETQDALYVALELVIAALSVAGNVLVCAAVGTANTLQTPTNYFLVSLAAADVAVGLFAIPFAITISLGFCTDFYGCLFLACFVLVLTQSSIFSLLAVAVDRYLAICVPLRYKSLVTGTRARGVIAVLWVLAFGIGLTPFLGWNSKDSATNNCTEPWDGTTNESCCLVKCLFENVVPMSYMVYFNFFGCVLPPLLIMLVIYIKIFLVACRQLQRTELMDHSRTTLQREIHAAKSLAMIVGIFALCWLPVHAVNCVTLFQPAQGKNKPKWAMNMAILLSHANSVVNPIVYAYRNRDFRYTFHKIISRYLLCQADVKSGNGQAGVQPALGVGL

Test [2] addresses human A2a adenosine receptor (Homo sapiens (Human), UniProt P29274). Description: A2a receptor affinity radioligand binding assay ([3H] SCH58261). Conditions: membranes from HEK293 or CHO cells expressing human A2a receptor. The method, boiled down:
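IC50 values come from 4-parameter logistic fits of filter-bound radioactivity, normalized to total (1% DMSO) and nonspecific (1 μM ZM241385) binding. Recombinant human A2a membranes (HEK293 or CHO) were exposed to compound for 15–30 min, then to [3H]SCH58261 (4 nM working dilution) for 60 min at room temperature in Tris pH 7.4/MgCl2/Tween20 buffer.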

Sequence of human A2a adenosine receptor (P29274 whole entry): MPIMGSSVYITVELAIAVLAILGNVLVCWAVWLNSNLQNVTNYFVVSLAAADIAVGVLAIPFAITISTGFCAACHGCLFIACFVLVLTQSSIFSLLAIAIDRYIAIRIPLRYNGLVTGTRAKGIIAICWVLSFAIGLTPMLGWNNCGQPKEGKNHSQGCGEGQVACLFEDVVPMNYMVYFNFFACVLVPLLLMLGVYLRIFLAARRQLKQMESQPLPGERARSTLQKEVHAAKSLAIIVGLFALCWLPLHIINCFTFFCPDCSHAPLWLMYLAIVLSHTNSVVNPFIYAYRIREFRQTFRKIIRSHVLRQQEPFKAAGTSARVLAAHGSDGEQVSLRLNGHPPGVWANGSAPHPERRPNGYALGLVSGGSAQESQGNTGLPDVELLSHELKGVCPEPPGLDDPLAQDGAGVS

Take `COc1cc(F)cc2c1nc(N)n1nc([C@@H]3CC[C@@H](C)N(c4cn(CC(C)(C)O)nc4C)C3)nc21` (single isomer, unassigned) [Example 114, 1-(4-((2R or 2S,5R or 5S)-5-(5-amino-9-fluoro-7-methoxy-[1,2,4]triazolo[1,5-c]quinazolin-2-yl)-2-methylpiperidin-1-yl)-3-methyl-1H-pyrazol-1-yl)-2-methylpropan-2-ol]: the IC50 (as a rule, the concentration needed to halve the response being measured) is 2900 nM in test [1] and 50.6 nM in test [2].

`COc1cc(F)cc2c1nc(N)n1nc([C@@H]3CC[C@H](C)N(c4cn(CC(C)(C)O)nc4C)C3)nc21` (single isomer, unassigned) [Example 115, 1-(4-((2S or 2R,5R or 5S)-5-(5-amino-9-fluoro-7-methoxy-[1,2,4]triazolo[1,5-c]quinazolin-2-yl)-2-methylpiperidin-1-yl)-3-methyl-1H-pyrazol-1-yl)-2-methylpropan-2-ol]: the IC50 amounted to 895 nM in test [1] and 2.9 nM in test [2].

For the compound `COc1cc(F)cc2c1nc(N)n1nc([C@H]3CC[C@H](C)N(c4cn(CC(C)(C)O)nc4C)C3)nc21` (single isomer, unassigned) [Example 116, 1-(4-((2S or 2R,5S or 5R)-5-(5-amino-9-fluoro-7-methoxy-[1,2,4]triazolo[1,5-c]quinazolin-2-yl)-2-methylpiperidin-1-yl)-3-methyl-1H-pyrazol-1-yl)-2-methylpropan-2-ol], the “A2B binding % Inh. @ 10000 nM” value in test [1] (@ 10000 nM) is 35% Inh. Further, the IC50 in test [2] turned out to be 207 nM.

Regarding `COc1cc(F)cc2c1nc(N)n1nc([C@H]3CC[C@@H](C)N(c4cn(CC(C)(C)O)nc4C)C3)nc21` (single isomer, unassigned) [Example 117, 1-(4-((2R or 2S,5S or 5R)-5-(5-amino-9-fluoro-7-methoxy-[1,2,4]triazolo[1,5-c]quinazolin-2-yl)-2-methylpiperidin-1-yl)-3-methyl-1H-pyrazol-1-yl)-2-methylpropan-2-ol], the IC50 in test [1] came out at 13 nM; in test [2], 0.2 nM.

Regarding `COc1cc(F)cc2c1nc(N)n1nc(C3CCC(C)N(c4cnn(CC(C)(C)O)c4)C3)nc21` (single isomer, unassigned) [Example 118, 1-(4-((2R or 2S,5R or 5S)-5-(5-amino-9-fluoro-7-methoxy-[1,2,4]triazolo[1,5-c]quinazolin-2-yl)-2-methylpiperidin-1-yl)-1H-pyrazol-1-yl)-2-methylpropan-2-ol], the IC50 in test [1] was 387 nM; in test [2], 1.9 nM.

Take `COc1cc(F)cc2c1nc(N)n1nc(C3CCC(C)N(c4cnn(CC(C)(C)O)c4)C3)nc21` (single isomer, unassigned) [Example 119, 1-(4-((2S or 2R,5S or 5R)-5-(5-amino-9-fluoro-7-methoxy-[1,2,4]triazolo[1,5-c]quinazolin-2-yl)-2-methylpiperidin-1-yl)-1H-pyrazol-1-yl)-2-methylpropan-2-ol]: the IC50 in test [1] was found to be 1300 nM; in test [2], 51.6 nM.

As for `COc1cc(F)cc2c1nc(N)n1nc(C3CCC(C)N(c4cnn(CC(C)(C)O)c4)C3)nc21` (single isomer, unassigned) [Example 120, 1-(4-((2R or 2S,5S or 5R)-5-(5-amino-9-fluoro-7-methoxy-[1,2,4]triazolo[1,5-c]quinazolin-2-yl)-2-methylpiperidin-1-yl)-1H-pyrazol-1-yl)-2-methylpropan-2-ol], the IC50 in test [1] was determined as 7.8 nM; in test [2], 0.6 nM.

`COc1cc(F)cc2c1nc(N)n1nc(C3CCC(C)N(c4cnn(CC(C)(C)O)c4)C3)nc21` (single isomer, unassigned) [Example 121, 1-(4-((2S or 2R,5R or 5S)-5-(5-amino-9-fluoro-7-methoxy-[1,2,4]triazolo[1,5-c]quinazolin-2-yl)-2-methylpiperidin-1-yl)-1H-pyrazol-1-yl)-2-methylpropan-2-ol]: the IC50 was found to be 5340 nM in test [1] and 55.4 nM in test [2].
